Assay results taken from US20100150938A1, “METHODS AND COMPOSITIONS FOR REDUCING INFLAMMATION AND TREATING INFLAMMATORY DISORDERS” (UNIVERSITY OF MASSACHUSETTS, priority 2008, published 2010).
Entries after “also recorded” stand apart in the source; their conditions may differ.

Tests used:
caspase-1 [1] = experiment: Caspase-1 cleavage/activation in mouse macrophages (Western blot p10); assay type: cell-based
Method: (§1) Bone marrow derived macrophages were generated as described (Severa, M et al. Journal of Biological Chemistry 281:26188-26195 (2006)). Human PBMCs were isolated by from whole blood of healthy volunteers by density gradient centrifugation. Lysis of red blood cells was performed using red blood cell lysis buffer (Sigma). Experiments in PBMCs and macrophages were carried out at a cell density of 2×10^6 cells/ml. All primary cells and cell lines except THP-1 cells were cultured in DMEM supplemented with L-glutamine, ciprofloxacin (Cellgro, Manassas, Va.) and 10% fetal calf serum (Hyclone, Logan, Utah). THP-1 cells were cultured in RPMI supplemented with 10% fetal calf serum (Hyclone), L-glutamine, sodium pyruvate (Cellgro), and ciprofloxacin. One day prior to stimulation, THP-1 cells were differentiated using 0.5 μM PMA for three hours, washed three times and plated for stimulation. All experiments that were performed for Western blot analysis were carried out in serum free DMEM medium. ATP stimulations were carried out at 5 mM one hour prior to harvesting supernatants.
Cell culture supernatants were precipitated by adding an equal volume of methanol and 0.25 volumes of chloroform, vortexed and centrifuged at 20.000×g for 10 min. The upper phase was discarded and 500 μl of methanol was added to the interphase. This mixture was centrifuged at 20.000×g for 10 min and the protein pellet dried at 55° C., resuspended in Laemmli buffer and boiled at 99° C. for 5 min. Samples were separated by SDS-PAGE (15%) and transferred onto nitrocellulose membranes. As indicated, blots were incubated with rabbit polyclonal antibody to anti murine caspase-1 p10 (sc-514, Santa Cruz Biotechnology, Santa Cruz, Calif.), rabbit polyclonal anti human caspase-1 p10 (sc-515, Santa Cruz Biotechnology), rabbit polyclonal anti human cleaved IL-1β (Asp116) (Cell Signaling, Boston, Mass.) or rabbit polyclonal anti murine cathepsin B (R&D Systems, Minneapolis, Minn.).
Cell culture supernatants were precipitated by adding an equal volume of methanol and 0.25 volumes of chloroform, vortexed and centrifuged at 20,000×g for 10 min. The upper phase was discarded and 500 μl of methanol was added to the interphase. This mixture was centrifuged at 20,000×g for 10 min and the protein pellet dried at 55° C., resuspended in Laemmli buffer and boiled at 99° C. for 5 min Samples were separated by SDS-PAGE (15%) and transferred onto nitrocellulose membranes. Blots were incubated with rabbit polyclonal antibody to anti murine caspase-1 p10 (sc-514, Santa Cruz Biotechnology, Santa Cruz, Calif.).

THP-1 cells = experiment: Lysosomal rupturing in THP-1 cells, IL-1β release; assay type: cell-based, human; details: PMA-differentiated THP-1 cells, 4 h
Method: Cell culture supernatants were assayed for IL-1β using ELISA kits from BD Biosciences (Franklin Lakes, NJ) according to the manufacturer's instructions. To measure intracellular IL-1β, cells were washed and subjected to three freeze thaw cycles in assay diluent. PMA-differentiated THP-1 cells were incubated with hypertonic DMEM medium containing 10% polyethylene glycol (PEG) 1000, 1.4 M sucrose, 20 mM Hepes (pH 7.2) and 5% FCS for […] at 37° C. Cells were subsequently washed and incubated in hypotonic DMEM medium [DMEM: H2O (3:2)] for 2 min to induce lysosomal rupturing. Cells were then incubated in serum free DMEM for additional 4 hours.

caspase-1 [2] = experiment: Caspase-1 activation in microglia (FLICA, confocal microscopy, flow cytometry); assay type: cell-based, mouse; details: immortalized microglia, Aβ 10 μM, revAβ 10 μM, ATP 1 mM, 4 h
Method: For assessment of microglia-induced neurotoxicity, CAD mouse neuronal cells^47 were seeded on poly-L-lysine coated glass cover slips and grown in F12/DMEM supplemented with ciprofloxacin (Cellgro, Manassas, Va.) and 10% fetal calf serum (Hyclone, Logan, Utah) for 24 h. Differentiation was induced by withdrawal of serum for 48 h Immortalized microglia from wildtype or caspase-1^−/− mice were added in serum free medium to obtain mixed neuronal/microglial cultures and immediately stimulated. 72 h after stimulation with Aβ or media, cells were fixed, stained for the neuron-specific marker TuJ-1 and microglial marker CD11b, and imaged by confocal microscopy (Leica SP2 AOBS). Caspase-1 activity in microglial cells was assessed using the caspase-1 FLICA™ kit (Immunochemistry Technologies, Bloomington, Minn.) according to the manufacturer's instructions.
For evaluation of lysosomal damage, cells were incubated with LysoTracker green (1:2000) for 30 min and stimulated as described. Lysosomal damage was defined as loss of LysoTracker fluorescence as assessed by flow cytometry. All flow cytometry experiments were performed on an LSRII cytometer (BD Biosciences), data were acquired by DIVA software (BD Biosciences) and analyzed with FlowJo software (Tree Star Inc., Ashland, Oreg.).
IL-1β maturation is controlled by caspase-1 after assembly of the inflammasome, a multi protein complex that activates pro-caspase-1. In order to test whether Aβ activates caspase-1, we measured levels of activated caspase-1 using a fluorescent cell permeable probe (FAM-YVAD-Fmk), which covalently binds only to activated caspase-1 (Fluorescent labeled Inhibitors of Caspases, FLICA)^14. […] Similar results were obtained in primary microglial cultures (FIG. 15c).

ASC = experiment: ASC-CFP microglia cell line, ASC clustering; assay type: cell-based, mouse; details: LPS-primed ASC-CFP microglia, 3 h after stimulation
Description: Human ASC was fused to CFP using BgIII/BamHI in pEF-BOS-CFP. Subsequently, ASC-CFP was cloned using XhoI and NotI into a modified form of FUGW (FUGW-XN). FUGW-XN was modified by replacing GFP with a novel cut site that created XhoI and NotI compatible ends upon Esp3I digestion.
Lentivirus was produced in 293T cells transfected with the FUGW based expression vector coding for ASC-CFP, lentiviral packaging plasmid containing gag, pol and rev genes (pCMV-dR8.91) and envelope plasmid (VSV-G) using TransIT-LT1 transfection reagent (Minis Bio, MIR 2300/5/6) as previously described^46. One day after transfection, medium was replaced and after one additional day of culture supernatants containing the lentivirus was removed, filtered and used to infect immortalized microglia cells.
For experiments, ASC-CFP microglial cells were seeded in duplicate into confocal dishes, stimulated as indicated. A647-labeled cholera toxin subunit B (1:1000) was added to stain cellular membranes. Cells were subsequently imaged using confocal microscopy (Leica SP2 AOBS). Cells were fixed and 5 random fields were imaged in duplicate for quantification.
First, we stably transduced microglial cell cultures with a fusion protein of ASC and cyan fluorescent protein (CFP). ASC forms large oligomers upon its activation, leading to visible changes in the cytoplasmic fluorescence pattern of ASC-CFP. […]

human PBMCs = experiment: IL-1β release from human PBMCs (ELISA, Western blot); assay type: cell-based
Method: as §1
(§2) Cell culture supernatants were assayed for IL-1β using ELISA kits from BD Biosciences (Franklin Lakes, NJ) according to the manufacturer's instructions. To measure intracellular IL-1β, cells were washed and subjected to three freeze thaw cycles in assay diluent.
Cell culture supernatants were precipitated by adding an equal volume of methanol and 0.25 volumes of chloroform, vortexed and centrifuged at 20.000×g for 10 min. The upper phase was discarded and 500 μl of methanol was added to the interphase. This mixture was centrifuged at 20.000×g for 10 min and the protein pellet dried at 55° C., resuspended in Laemmli buffer and boiled at 99° C. for 5 min. Samples were separated by SDS-PAGE (15%) and transferred onto nitrocellulose membranes. […]

mouse macrophages [3] = experiment: IL-1β release from LPS-primed mouse macrophages (bone marrow-derived, B6-MCLs), ELISA; assay type: cell-based; details: LPS-primed B6-MCLs, cytochalasin D 30 min
Method: as §1
Immortalized macrophage cell lines were generated using the previously described J2 recombinant retrovirus (carrying v-myc and v-raf/mil oncogenes) (Roberson, S. M. & Walker, W. S. Cellular immunology 116:341-351 (1988)). Briefly, primary bone marrow cells were incubated in L929 conditioned medium for 3-4 days to induce macrophage differentiation. Subsequently, cells were infected with J2 recombinant retrovirus. Cells were maintained in culture for 3-6 months slowly weaning off the percentage of L929 supernatant until cells were growing in the absence of conditioned medium.
Macrophage phenotype was verified by surface marker expression for CD11b and F480 as well as a range of functional parameters, including responsiveness to TLR ligands and bacterial uptake. Macrophage cell lines from wild-type (C57BL6), NALP3- and ASC-deficient mice were generated and are referred to as B6-MCLs, NALP3 -MCLs and ASC-MCLs.
as §2
(§3) Stimulations were carried out in serum free DMEM medium. Microglial cells and macrophages were primed with 100 U/ml IFNγ (Griess assay, TNF ELISA, real-time quantitative PCR) or 100 ng/ml ultrapure LPS (IL-1β ELISA, FLICA, ASC-CFP microglia cell line assay, Western blot) 1-3 h prior to stimulation with Aβ, revAβ, zymosan, ATP or transfection with dAdT.

mouse macrophages [4] = experiment: Crystal uptake (phagocytosis) in mouse macrophages, confocal reflection microscopy; assay type: cell-based; details: cytochalasin D 2.5 μM
Description: Confocal reflection microscopy was combined with fluorescence microscopy on a Leica SP2 AOBS confocal laser scanning microscope. Reflection was captured by placing the detector channel directly over the wavelength of the selected laser channel for reflection light capture and the AOBS was set to allow 5-15% of laser light into the collection channel. Fluorescence was simultaneously captured by standard confocal imaging techniques.
To visualize the uptake of crystalline material in living cells, we devised a method to image crystals simultaneously with cellular components stained with fluorescent dyes (FIG. 8b). We used this method to study the uptake of crystals into mouse macrophages. […] The median length of silica Q6 crystals engulfed by phagocytosis was 1.65 μm (FIG. 3c).

mouse microglia [5] = experiment: IL-1β release from LPS-primed mouse microglia (ELISA); assay type: cell-based
Method: For primary cultures, bone marrow-derived macrophages and microglia were isolated as described^42,43 and cultured in DMEM supplemented with L-glutamine, ciprofloxacin (Cellgro, Manassas, Va.) and 10% fetal calf serum (Hyclone, Logan, Utah) Immortalized macrophage and microglial cell lines were generated using J2 recombinant retrovirus (carrying v-myc and v-raf oncogenes)^44,45. Briefly, primary bone marrow cells were incubated in L929 conditioned medium for 3-4 days to induce macrophage differentiation. Cells were then infected with J2 recombinant retrovirus and maintained in culture until cells were growing in the absence of conditioned medium. Similarly, primary mixed glial cultures were cultured until fully confluent. After two consecutive infections with J2 retrovirus, cells were maintained in normal medium until growth of microglial cells in colonies was observed. The semi-adherent colonies of microglial cells were washed off and cultured in new flasks. […] Microglial cell lines form wild type (C57/BL6), Caspase-1^−/− and IL-IR^−/− mice as well as macrophage cell lines from wild type (C57BL6), NALP3 -, IPAF- and ASC-deficient mice were generated and used for experiments as indicated.
as §3
(§4) Cell culture supernatants were assayed for IL-1β and TNFα using ELISA kits from R&D Systems (Minneapolis, Minn.) according to the manufacturer's instructions. Nitric oxide was measured by Griess reaction of nitrites accumulated in the supernatants using chemicals from Sigma.

mouse microglia [6] = experiment: Nitric oxide production by primed microglia (Griess reaction); assay type: cell-based; details: primed immortalized microglia, 24 h
Method: as §3, §4

mouse microglia [7] = experiment: TNF-α release from primed microglia (ELISA); assay type: cell-based; details: primed immortalized microglia, 24 h
Method: as §3, §4

[8] = human PBMCs pretreated with cytochalasin D
[9] = wild type immortalized microglia

Question: For `Nc1ncnc2c1ncn2[C@@H]1O[C@H](COP(=O)(O)OP(=O)(O)OP(=O)(O)O)[C@@H](O)[C@H]1O` [ATP], which “caspase-1 cleavage induced by the stimulus” value (caspase-1 [1]; LPS-primed bone marrow-derived macrophages, wild-type) is on record?
Answer: induced in a dose dependent way

Question: And the “caspase-1 cleavage (p10) induced by the stimulus” value (caspase-1 [1]; LPS-primed wild type bone marrow-derived macrophages, Aβ and reverse Aβ 10 μM)?
Answer: induced caspase-1 cleavage (p10)

Question: What about the “IL-1β release induced by the stimulus” value (THP-1 cells) of the same molecule?
Answer: increased IL-1β release

Question: And the “caspase-1 positive microglial cells after stimulation” value (caspase-1 [2])?
Answer: robust increase

Question: And the “formation of fluorescent ASC-CFP clusters” value (ASC)?
Answer: also observed

Question: How did the “IL-1β release after treatment with MSU or silica crystals, inhibitor pretreatment” value (human PBMCs; [8]) turn out when `C=C1[C@@H](C)[C@H]2[C@H](Cc3ccccc3)NC(=O)[C@]23[C@H](OC(C)=O)/C=C/[C@@](C)(O)C(=O)[C@@H](C)C/C=C/[C@H]3[C@@H]1O` [cytochalasin D] was run?
Answer: completely abrogated

Question: What about the “IL-1β response to R-848 or ATP, inhibitor pretreatment” value (human PBMCs; [8]) of the same molecule?
Answer: unaffected

Question: What about the “IL-1β response to ATP, inhibitor present” value (mouse macrophages [3]) of the same molecule?
Answer: unaffected

Question: And the “IL-1β release after treatment with MSU or silica crystals, inhibitor present” value (mouse macrophages [3]; MSU 250 μg/ml, silica 500 μg/ml)?
Answer: abrogated

Question: And the “phagocytosis of silica or MSU crystals by treated cells” value (mouse macrophages [4])?
Answer: failed to engulf

Question: And the “ATP-induced IL-1β release in presence of cytochalasin D” value (mouse microglia [5]; [9])?
Answer: no effect; also recorded: not affected

Question: And the “Aβ-induced IL-1β release in presence of cytochalasin D” value (mouse microglia [5]; [9])?
Answer: strongly attenuated; also recorded: dose-dependently inhibited

Question: Which “IL-1β response to silica crystal treatment in presence of inhibitor” value (human PBMCs; LPS-primed human PBMCs, silica crystals, z-YVAD, 6 h) does the source give for `COC(=O)C[C@H](NC(=O)[C@H](C)NC(=O)[C@@H](NC(=O)[C@H](Cc1ccc(O)cc1)NC(=O)OCc1ccccc1)C(C)C)C(=O)CF` [z-YVAD, z-YVAD-fmk] here?
Answer: almost completely abolished

Question: What about the “ATP-induced IL-1β release in presence of caspase-1 inhibitor” value (mouse microglia [5]; primary microglia) of the same molecule?
Answer: also inhibited

Question: What about the “Aβ-induced IL-1β release in presence of caspase-1 inhibitor” value (mouse microglia [5]; primary microglia) of the same molecule?
Answer: dose-dependently reduced

Question: What about the “Aβ-induced IL-1β release in presence of caspase-1 inhibitor” value (mouse microglia [5]; wild type immortalized microglial cells, 6 h) of the same molecule?
Answer: dose-dependent inhibition; also recorded: significant attenuation

Question: And the “Aβ-induced NO production, inhibitor present” value (mouse microglia [6])?
Answer: strongly and dose-dependently attenuated; also recorded: strongly inhibited

Question: What about the “Aβ-induced TNF-α release, inhibitor present” value (mouse microglia [7]) of the same molecule?
Answer: attenuated; also recorded: inhibited
